According to US20130266636A1, “METHODS FOR BLOCKING CELL PROLIFERATION AND TREATING DISEASES AND CONDITIONS RESPONSIVE TO CELL GROWTH INHIBITION” (THE REGENTS OF THE UNIVERSITY OF CALIFORNIA, priority 2010, published 2013):
Entries after “also recorded” stand apart in the source; their conditions may differ.

Tests used:
[1] = system: human breast (MDA-MB-231) carcinoma cell line; assay: Cell viability assay in MDA-MB-231 cells; type: cell-based; settings: for cell viability / potency relative to KG5 (cell viability EC50s): MDA-MB-231; for EC50: MDA-MB-231 breast cancer cell viability assays
[2] = system: human breast (T47D) carcinoma cell line; assay: Cell viability assay in T47D cells; type: cell-based; settings: for cell viability / potency relative to KG5 (cell viability EC50s): T47D; for EC50: T47D breast cancer cells
[3] = system: human lung (A549) carcinoma cell line; assay: Cell viability assay in A549 cells; type: cell-based; settings: for cell viability / potency relative to KG5 (cell viability EC50s): A549; for EC50: A549 lung cancer cells
A549 cells = assay: Cell proliferation assay in A549 cells; type: cell-based, human
XPA-1 cells = assay: Cell cycle analysis, bright field and confocal microscopy of XPA-1 cells; type: cell-based, human; settings: XPA-1 cells, 20 hours
Procedure: FIG. 38. […] FIG. 38(a) Bright field images (scale bar, 20 μm), cell cycle analysis and confocal microscopy images (scale bar, 10 μm, laminB in red and DNA in blue) of XPA-1 cells treated for 20 hours with the allosteric RAF inhibitor KG5, the ATP-competitive inhibitor Sorafenib, the MEK inhibitor PD0325901, the control compound KG1 at 5 μM or paclitaxel at 200 nM. Cells were harvested after 20 hours and the cell cycle stage was determined by flow cytometry and confocal microscopy. White arrows indicate cells arrested at pro-metaphase. Scale bars, 10 μm. FIG. 38(b) Representative confocal microscopy images of untreated XPA-1 tumor cells undergoing mitosis (left image) and XPA-1 cell arrested with KG5 at pro-metaphase (right image). Cells were stained with α-tubulin in red and DNA in blue. Scale bar, 10 μm. FIG. 38(c) XPA-1 cells transfected with a vector control or active MEK were treated with 1 μM KG5 for 20 hours or left untreated and the G2/M population was quantified by flow cytometry. Error bars represent s.d. (n=3); * two tailed p value=0.00063 using a Mann Whitney U test. FIG. 38(d) Immunoblot analysis of XPA-1 cells untreated or treated with 1 μM KG5 for 18 hours. Data are representative of four independent experiments. […] Error bars represent s.d. (n=3); * two tailed p value=0.010 using a Mann Whitney U test. Inset, Immunoblot analysis of HCT-116 cells untreated or treated with 1 μM KG5 for 18 hours.
FIG. 39. […] FIG. 39 graphically illustrates cell cycle analysis of XPA-1 cells treated with the allosteric RAF inhibitor KG5, the microtubule stabilizer paclitaxel, or the ATP-competitive RAF inhibitors sorafenib, L-779450, GW 5074, and ZM-336372. Cells were harvested after 6, 18, 24, 48 and 72 hours and the percentages of cells in G2/M and SubG1 were determined by flow cytometry. Data are representative of three independent experiments.
Cell cycle analysis was performed by flow cytometry following propidium iodide staining. Briefly, cells were harvested, fixed with ice cold methanol, treated for 45 min with 10 μg/ml of RNase and resuspended in PBS containing 10 μg/ml of PI, and analyzed by flow cytometry. Cell cycle analysis was performed in cells treated for 18 hours with the allosteric RAF inhibitor KG5, the ATP-competitive RAF inhibitors: sorafenib, L-779450, GW5074, and ZM-336372, the MEK inhibitor (PD0325901) at […] concentration or paclitaxel at 100 nM.

CRAF = CRAF (Homo sapiens, UniProt P04049); assay: CRAF localization to the mitotic spindle, confocal microscopy of XPA-1 cells; type: cell-based; parameters: total CRAF and total MEK of lysates from XPA-1 cells treated with PD0325901, Sorafenib, L-779450, PLX4720, KG5 or KG1; endogenous in cells; host or cells: XPA-1
CRAF, sequence (P04049 whole entry): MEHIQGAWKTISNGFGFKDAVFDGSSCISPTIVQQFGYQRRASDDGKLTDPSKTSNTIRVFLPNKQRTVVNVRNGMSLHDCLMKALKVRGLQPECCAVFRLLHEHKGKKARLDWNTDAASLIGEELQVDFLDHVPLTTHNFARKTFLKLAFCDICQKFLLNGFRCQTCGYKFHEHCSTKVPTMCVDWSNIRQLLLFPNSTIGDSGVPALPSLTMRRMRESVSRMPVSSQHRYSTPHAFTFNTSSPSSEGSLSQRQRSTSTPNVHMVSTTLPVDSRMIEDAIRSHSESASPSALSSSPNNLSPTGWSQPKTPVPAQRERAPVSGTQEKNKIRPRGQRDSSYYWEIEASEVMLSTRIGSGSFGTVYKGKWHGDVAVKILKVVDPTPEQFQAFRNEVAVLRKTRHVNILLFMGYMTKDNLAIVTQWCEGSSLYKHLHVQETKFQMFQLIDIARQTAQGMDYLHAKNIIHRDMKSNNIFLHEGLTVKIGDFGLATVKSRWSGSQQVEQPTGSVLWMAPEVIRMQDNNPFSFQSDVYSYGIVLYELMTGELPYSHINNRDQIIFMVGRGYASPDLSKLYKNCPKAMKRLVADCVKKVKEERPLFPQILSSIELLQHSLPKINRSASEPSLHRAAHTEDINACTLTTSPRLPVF
Text: FIG. 35. […] Data are representative of three independent experiments. FIG. 35 (b) Confocal microscopy images of human pancreatic XPA-1 and glioblastoma U251 cells during mitosis, stained for phospho-5338 CRAF (in green), α-tubulin (in red) and DNA (TOPRO-3™ in blue). Scale bar, 10 μm. White arrows indicate localization of phospho-S338 CRAF at the mitotic spindle. FIG. 35 (c) Immunoblot analysis of γ-tubulin immunoprecipitates from human colon carcinoma HCT-116 cells asynchronized and synchronized at pro-metaphase. Data are representative of three independent experiments. FIG. 35(d) Immunohistochemical staining of phospho-S338 CRAF in tumor biopsies from breast cancer patients. Scale bar, 10 μm. FIG. 35(e) Confocal microscopy images of XPA-1 cells treated with KG5, sorafenib, ZM336372, L779450 or paclitaxel and stained for CRAF (in green), γ-tubulin (in red) and DNA (TOPRO-3™ in blue). Scale bar, 10 μm. White arrows indicate localization of CRAF at the spindle pole. White circle indicates the absence of CRAF at the spindle pole.
Cells attached to cover-slips were fixed with cold methanol and permeabilized in PBS containing 0.1% triton for two minutes and blocked for 60 minutes, at room temperature with 2% BSA in PBS. Cells were stained with antibodies to CRAF (Abcam), phospho-serine 338 CRAF (SantaCruz), phospho-serine 338 CRAF (Thermo Scientific), a tubulin (Calbiochem), γ tubulin (Abcam), laminB (SantaCruz), Plk1 (Abcam), phospho-T210 Plk1 (Abcam), or phospho-T288 Aurora A (cell signaling). All primary antibodies were used at 1:100 dilution, for two hours at room temperature. After washing several times with PBS, cells were stained for two hours at room temperature, with secondary antibody specific for mouse, rabbit or goat (Invitrogen), as appropriate, diluted 1:300 and co-incubated with the DNA dye TOPRO-3™ (1:500) (Invitrogen). Samples were mounted in VECTASHIELD™ hard-set mounting media (Vector Laboratories) and imaged on a Nikon ECLIPSE C1™ confocal microscope with a 1.4 NA 60× oil-immersion lens, using minimum pinhole (30 μm). Images were captured using EZ-C1-3.50 imaging software.

potency relative to KG5 (cell viability EC50s) [1] | EC50 [1] | potency relative to KG5 (cell viability EC50s) [2] | EC50 [2] | potency relative to KG5 (cell viability EC50s) [3] | EC50 [3] | Compound | cell viability [1] | cell viability [2] | cell viability [3] | cell proliferation (A549 cells) | arrest at pro-metaphase (confocal microscopy) (XPA-1 cells) | CRAF localization to the mitotic spindle (CRAF)
more potent than KG5 | approach picomolar (pM) EC50s | more potent than KG5 | approach picomolar (pM) EC50s | more potent than KG5 | approach picomolar (pM) EC50s | CSc1nc(N)cc(Oc2ccc(-c3nnc(Nc4cc(C)ccc4C)[nH]3)cc2)n1 [H3-3, 6-(4-{5-[(2,5-dimethylphenyl)amino]-4H-1,2,4-triazol-3-yl}phenoxy)-2-(methylsulfanyl)pyrimidin-4-amine] | decrease cell viability | decrease cell viability | decrease cell viability | – | – | –
more potent than KG5 | approach picomolar (pM) EC50s | more potent than KG5 | approach picomolar (pM) EC50s | more potent than KG5 | approach picomolar (pM) EC50s | CSc1nc(N)cc(Oc2ccc(-c3nnc(Nc4cc(C)cc(C)c4)[nH]3)cc2)n1 [H3-7, 6-(4-{5-[(3,5-dimethylphenyl)amino]-4H-1,2,4-triazol-3-yl}phenoxy)-2-(methylsulfanyl)pyrimidin-4-amine] | decrease cell viability | decrease cell viability | decrease cell viability | – | – | –
more potent than KG5 | approach picomolar (pM) EC50s | – | – | – | – | CSc1nc(N)cc(Oc2ccc(-c3nnc(Nc4ccc(C)c(C)c4)[nH]3)cc2)n1 [H3-9, 6-(4-{5-[(3,4-dimethylphenyl)amino]-4H-1,2,4-triazol-3-yl}phenoxy)-2-(methylsulfanyl)pyrimidin-4-amine] | decrease cell viability | – | – | – | – | –
more potent than KG5 | approach picomolar (pM) EC50s | – | – | – | – | CSc1nc(N)cc(Oc2ccc(-c3nnc(Nc4cccc(C)c4C)[nH]3)cc2)n1 [H3-11, 6-(4-{5-[(2,3-dimethylphenyl)amino]-4H-1,2,4-triazol-3-yl}phenoxy)-2-(methylsulfanyl)pyrimidin-4-amine] | decrease cell viability | – | – | – | – | –
more potent than KG5 | approach picomolar (pM) EC50s | more potent than KG5 | approach picomolar (pM) EC50s | more potent than KG5 | approach picomolar (pM) EC50s | CSc1nc(N)cc(Oc2ccc(-c3nnc(Nc4cccc5c4CCCC5)[nH]3)cc2)n1 [H3-21, 2-(methylsulfanyl)-6-{4-[5-(5,6,7,8-tetrahydronaphthalen-1-ylamino)-4H-1,2,4-triazol-3-yl]phenoxy}pyrimidin-4-amine] | decrease cell viability | decrease cell viability | decrease cell viability | – | – | –
more potent than KG5 | approach picomolar (pM) EC50s | – | – | – | – | CCOc1nc(N)cc(Oc2ccc(-c3nnc(Nc4cccc(C(F)(F)F)c4)[nH]3)cc2)n1 [K1-72, 2-ethoxy-6-[4-(5-{[3-(trifluoromethyl)phenyl]amino}-4H-1,2,4-triazol-3-yl)phenoxy]pyrimidin-4-amine] | decrease cell viability | – | – | – | – | –
– | – | – | – | – | – | CCCS(=O)(=O)Nc1ccc(F)c(C(=O)c2c[nH]c3ncc(-c4ccc(Cl)cc4)cc23)c1F [PLX4032] | – | – | – | induce proliferation | – | –
– | – | – | – | – | – | CNC(=O)c1cc(Oc2ccc(NC(=O)Nc3ccc(Cl)c(C(F)(F)F)c3)cc2)ccn1 [Sorafenib] | – | – | – | induce proliferation | does not arrest cells at pro-metaphase | does not prevent CRAF localization to the mitotic spindle or midbodies
– | – | – | – | – | – | CC(=O)O[C@H]1C(=O)[C@@]2(C)[C@H]([C@H](OC(=O)c3ccccc3)[C@]3(O)C[C@H](OC(=O)[C@H](O)[C@@H](NC(=O)c4ccccc4)c4ccccc4)C(C)=C1C3(C)C)[C@]1(OC(C)=O)CO[C@@H]1C[C@@H]2O [paclitaxel] | – | – | – | – | arrests cells at pro-metaphase | does not affect CRAF localization to the mitotic spindle; also recorded: CRAF remained localized to the mitotic spindle
